Results published in patent US20250144067A1, “PERSONALIZED STARVATION THERAPY FOR CANCER” (Faeth Therapeutics, Inc., priority 2021, published 2025).
Structures can show the parent of a compound that is named as a salt. Where two headings read alike, the source gives them in different places.

Legend:
[1] = tested on: NCI-H292 lung cancer cells; experiment: FDA drug screening, complete media vs cholesterol-free media without statin (TABLE 1); assay type: cell-based, human
[2] = tested on: NCI-H292 lung cancer cells; experiment: FDA drug screening, complete media vs cholesterol-free media with simvastatin (TABLE 2); assay type: cell-based, human
[3] = NCI-H292 cells, cholesterol-free media without statin, FDA drug library screen
[4] = NCI-H292 cells, complete media, FDA drug library screen
[5] = complete vs cholesterol-free media, >0 enhanced anti-cancer activity, about 0 neutral, <0 antagonist
[6] = NCI-H292 cells, cholesterol-free media with simvastatin 0.04 μM, cell growth value in FDA drug screen
[7] = NCI-H292 cells, complete media, cell growth value in FDA drug screen
[8] = complete media minus cholesterol-free media + simvastatin, >0 enhanced anti-cancer activity, about 0 neutral, <0 antagonist
[9] = NCI-H292 cells, FDA drug library screen, cholesterol-free media with simvastatin 0.04 μM
[10] = NCI-H292 cells, FDA drug library screen, complete media
[11] = complete media vs cholesterol-free media + simvastatin (0.04 μM), >0 enhanced anti-cancer activity, about 0 neutral, <0 antagonist
[12] = complete vs cholesterol-free media, […]
[13] = complete media minus cholesterol-free media + simvastatin (0.04 μM), […]
[14] = NCI-H292 cells, cholesterol-free media without statin
[15] = NCI-H292 cells, drug in cholesterol-free media with simvastatin 0.04 μM
[16] = NCI-H292 cells, drug in complete media
[17] = complete media vs cholesterol-free media + simvastatin (0.04 μM), […]
[18] = Complete minus Cholesterol-free, greater than 0 enhanced anti-cancer activity, about 0 neutral, below 0 antagonists
[19] = NCI-H292 cells in cholesterol-free media without statin
[20] = NCI-H292 cells in complete media
[21] = NCI-H292 cells, cholesterol-free media with simvastatin 0.04 μM, FDA drug library screen (TABLE 2)
[22] = NCI-H292 cells, complete media, FDA drug library screen (TABLE 2)
[23] = complete media minus cholesterol-free media + simvastatin (0.04 μM), >0 enhanced anti-cancer activity, about 0 neutral, <0 antagonist
[24] = Complete minus Cholesterol-free, >0 enhanced anti-cancer activity, about 0 neutral, <0 antagonist
[25] = Complete minus Cholesterol-free, […]
[26] = NCI-H292 cells, FDA library drug in cholesterol-free media with simvastatin 0.04 μM
[27] = NCI-H292 cells, FDA library drug in complete media
[28] = NCI-H292 cells, FDA drug library screen, cholesterol-free media without statin
[29] = Complete minus Cholesterol-free, greater than 0 enhanced anti-cancer activity, about 0 neutral, below 0 antagonist

C[C@@H](Oc1cc(-c2cnn(C3CCNCC3)c2)cnc1N)c1c(Cl)ccc(F)c1Cl [Crizotinib (hydrochloride)]
Cholesterol-free [1, 3]: 0.1813 | Complete [1, 4]: 0.2796 | Difference [1, 5]: 0.10 | Cholesterol-free media + simvastatin (0.04 μM) [2, 6]: 0.4168 | Complete Media [2, 7]: 0.4474 | Difference [2, 8]: 0.03

CC(C)C[C@H](NC(=O)CNC(=O)c1cc(Cl)ccc1Cl)B1OC(=O)C(CC(=O)O)(CC(=O)O)O1 [Ixazomib citrate]
Cholesterol-free [1, 3]: −0.00597 | Complete [1, 4]: 0.1018 | Difference [1, 5]: 0.11 | Cholesterol-free media + simvastatin (0.04 μM) [2, 9]: 0.141 | Complete Media [2, 10]: 0.02787 | Difference [2, 11]: −0.11

Angiotensin II 5-valine (DRVYVHPF; Angiotensin-2; UniProt P01019 25-32, looked up, variant I5V)
Cholesterol-free [1, 3]: 0.8655 | Complete [1, 4]: 1.09 | Difference [1, 12]: 0.22 | Cholesterol-free media + simvastatin (0.04 μM) [2, 9]: 2.07 | Difference [2, 13]: −0.98

Valemetostat (tosylate)
Cholesterol-free [1, 14]: 1.464 | Complete ([1]; NCI-H292 cells, complete media): 1.052 | Difference [1, 12]: −0.41 | Cholesterol-free media + simvastatin (0.04 μM) [2, 15]: 1.195 | Complete Media [2, 16]: 0.9379 | Difference [2, 17]: −0.26

C=CC(N)CCC(=O)O (stereo not drawn) [Vigabatrin (hydrochloride)]
Difference [1, 18]: −0.74 | Cholesterol-free [1, 19]: 1.769 | Complete [1, 20]: 1.024 | Cholesterol-free media + simvastatin (0.04 μM) [2, 21]: 1.122 | Complete Media [2, 22]: 1.063 | Difference [2, 23]: −0.06

CCCCC1C(=O)N(c2ccccc2)N(c2ccccc2)C1=O [Phenylbutazone]
Difference [1, 24]: −0.26 | Cholesterol-free [1, 14]: 1.376 | Complete ([1]; NCI-H292 cells, complete media): 1.114 | Cholesterol-free media + simvastatin (0.04 μM) [2, 6]: 1.076 | Difference [2, 8]: 0.07

COc1ccc(C(=O)N2CCCC2=O)cc1 [Aniracetam]
Cholesterol-free [1, 3]: 0.69 | Complete [1, 4]: 1.062 | Difference [1, 5]: 0.37 | Cholesterol-free media + simvastatin (0.04 μM) [2, 21]: 1.041 | Complete Media [2, 22]: 1.006 | Difference [2, 23]: −0.04

COCC1=C(C(=O)OC(C)OC(=O)OC(C)C)N2C(=O)[C@@H](NC(=O)/C(=N\OC)c3csc(N)n3)[C@H]2SC1 (stereo partly drawn) [Cefpodoxime Proxetil]
Cholesterol-free [1, 3]: 1.085 | Complete [1, 4]: 1.311 | Difference [1, 5]: 0.23 | Cholesterol-free media + simvastatin (0.04 μM) [2, 6]: 1.112 | Complete Media [2, 7]: 1.162 | Difference [2, 8]: 0.05

C[n+]1ccccc1/C=N/O.[Cl-] [Pralidoxime (chloride)]
Difference [1, 25]: −0.31 | Cholesterol-free [1, 14]: 1.203 | Complete ([1]; NCI-H292 cells, complete media): 0.8976 | Cholesterol-free media + simvastatin (0.04 μM) [2, 26]: 1.051 | Complete Media [2, 27]: 0.7574 | Difference [2, 17]: −0.29

O=c1[nH]cnc2c1ncn2[C@H]1CC[C@@H](CO)O1 [Didanosine]
Difference [1, 24]: −0.23 | Cholesterol-free [1, 14]: 0.9969 | Complete ([1]; NCI-H292 cells, complete media): 0.7675 | Cholesterol-free media + simvastatin (0.04 μM) [2, 9]: 0.9758 | Complete Media [2, 10]: 0.8636 | Difference [2, 11]: −0.11

CO[C@H]1/C=C/O[C@@]2(C)Oc3c(C)c(O)c4c(O)c(c(/C=N/N5CCN(C6CCCC6)CC5)c(O)c4c3C2=O)NC(=O)/C(C)=C\C=C\[C@H](C)[C@H](O)[C@@H](C)[C@@H](O)[C@@H](C)[C@H](OC(C)=O)[C@@H]1C [Rifapentine]
Difference [1, 24]: −0.06 | Cholesterol-free [1, 3]: 1.056 | Complete [1, 4]: 0.9967 | Cholesterol-free media + simvastatin (0.04 μM) [2, 9]: 1.582 | Complete Media [2, 10]: 1.938 | Difference [2, 8]: 0.36

CC(Cc1ccc(O)cc1)NCC(O)c1cc(O)cc(O)c1 (stereo not drawn) [Fenoterol (hydrobromide)]
Difference [1, 25]: −0.09 | Cholesterol-free [1, 28]: 1.404 | Complete [1, 10]: 1.311 | Cholesterol-free media + simvastatin (0.04 μM) [2, 21]: 0.9531 | Complete Media [2, 22]: 0.9512 | Difference [2, 13]: 0.00

CC(C)(C)C(=O)Oc1ccc(S(=O)(=O)Nc2ccccc2C(=O)NCC(=O)O)cc1 [Sivelestat]
Difference [1, 29]: −0.16 | Cholesterol-free [1, 28]: 1.175 | Complete [1, 10]: 1.017 | Cholesterol-free media + simvastatin (0.04 μM) [2, 6]: 0.7952 | Complete Media [2, 7]: 0.866 | Difference [2, 8]: 0.07

CN1[C@@H]2CC[C@H]1C[C@@H](OC(=O)C(CO)c1ccccc1)C2 (stereo partly drawn) [Atropine]
Cholesterol-free [1]: 1.317 | Complete [1]: 0.8977 | Difference [1]: −0.42 | Cholesterol-free media + simvastatin (0.04 μM) [2]: 1.317 | Difference [2]: −0.28

CCCC(=O)O[C@]1(C(=O)CCl)[C@H](C)C[C@@H]2[C@@H]3CCC4=CC(=O)C=C[C@]4(C)[C@]3(F)C(=O)C[C@@]21C [Clobetasone butyrate]
Difference [1, 25]: −0.18 | Cholesterol-free [1, 28]: 0.6832 | Complete [1, 10]: 0.5004 | Cholesterol-free media + simvastatin (0.04 μM) ([2]; NCI-H292 cells, cholesterol-free media with simvastatin 0.04 μM, […]): 0.5437 | Complete Media ([2]; NCI-H292 cells, complete media, […]): 0.5699 | Difference ([2]; complete media minus cholesterol-free media + simvastatin, […]): 0.03

CN(CCOc1ccc(NS(C)(=O)=O)cc1)CCc1ccc(NS(C)(=O)=O)cc1 [Dofetilide]
Difference [1, 18]: −0.48 | Cholesterol-free [1, 19]: 1.275 | Complete [1, 20]: 0.7972 | Cholesterol-free media + simvastatin (0.04 μM) [2, 9]: 0.6812 | Complete Media [2, 10]: 0.8394 | Difference [2, 8]: 0.16

COc1cc2ncnc(Nc3ccc(F)c(Cl)c3)c2cc1OCCCN1CCOCC1 [Gefitinib]
Difference [1, 24]: −0.25 | Cholesterol-free [1, 14]: 0.6996 | Complete ([1]; NCI-H292 cells, complete media): 0.4472 | Cholesterol-free media + simvastatin (0.04 μM) [2, 6]: 0.5074 | Complete Media [2, 7]: 0.6027 | Difference [2, 8]: 0.10

CC(=C(CCO)SSCC1CCCO1)N(C=O)Cc1cnc(C)nc1N (stereo in doubt) [Fursultiamine]
Cholesterol-free [1]: 1.191 | Complete [1]: 1.162 | Difference [1]: −0.03 | Cholesterol-free media + simvastatin (0.04 μM) [2]: 1.842 | Complete Media [2]: 1.268 | Difference [2]: −0.57

C[C@]12CC[C@H](O)CC1=CC[C@@H]1[C@@H]2CC[C@]2(C)C(=O)CC[C@@H]12 [DHEA]
Cholesterol-free [1, 3]: 1.449 | Complete [1, 4]: 1.634 | Difference [1, 12]: 0.19 | Cholesterol-free media + simvastatin (0.04 μM) [2, 26]: 1.034 | Complete Media [2, 27]: 0.7371 | Difference [2, 17]: −0.30

Cc1cc(Nc2ncc(Cl)c(Nc3ccccc3S(=O)(=O)C(C)C)n2)c(OC(C)C)cc1C1CCNCC1 [Ceritinib]
Difference [1, 24]: −0.05 | Cholesterol-free [1, 3]: 0.1038 | Complete [1, 4]: 0.05759 | Cholesterol-free media + simvastatin (0.04 μM) [2, 21]: 0.1163 | Complete Media [2, 22]: 0.0662 | Difference [2, 23]: 0.05

CCOc1cc(CC(=O)N[C@@H](CC(C)C)c2ccccc2N2CCCCC2)ccc1C(=O)O [Repaglinide]
Difference [1, 29]: −0.08 | Cholesterol-free [1, 28]: 1.088 | Complete [1, 10]: 1.008 | Cholesterol-free media + simvastatin (0.04 μM) [2, 15]: 0.996 | Complete Media [2, 16]: 0.8125 | Difference [2, 11]: −0.18

NCCCNCCSP(=O)(O)O [Amifostine]
Difference [1, 29]: −0.17 | Cholesterol-free [1, 28]: 1.387 | Complete [1, 10]: 1.213 | Cholesterol-free media + simvastatin (0.04 μM) [2, 21]: 0.9829 | Complete Media [2, 22]: 0.9429 | Difference [2, 23]: −0.04

CN/C(=N/CCSCc1nc[nH]c1C)NC#N [Cimetidine]
Difference [1, 18]: −0.70 | Cholesterol-free [1, 19]: 1.504 | Complete [1, 20]: 0.8083 | Cholesterol-free media + simvastatin (0.04 μM) [2, 26]: 1.358 | Complete Media [2, 27]: 0.952 | Difference [2, 11]: −0.41
